This is an account of results in patent US8853234B2, “Quinolone analogs and methods related thereto” (Senhwa Biosciences, Inc., priority 2007, dated 2014).

Assay [1] relates to A375 cell xenograft tumors. The assay can be described thus: A375 cell xenograft tumor inhibition. To be noted: 100 mg/kg oral twice a day, seven days. Type of assay: in vivo, rodents. As for the experimental part:
(§1) Compounds A1, A2 and A3 also were tested for tumor inhibition in xenograft rodents. Rodents having A375 cell xenograft tumors were administered 100 mg/kg, 75 mg/kg and 100 mg/kg doses of Compound A1, A2 and A3, respectively, by oral delivery twice a day. […] Also, rodents having MiaPaCa xenograft tumors were administered 100 mg/kg doses of Compound A1 and A3 by oral delivery twice per day.

In another assay the test system is MiaPaCa xenograft tumors. The assay can be described thus: MiaPaCa xenograft tumor inhibition. The format is in vivo, rodents. The settings on record: 100 mg/kg oral twice per day, twenty-two days. As for the experimental part:
as §1

Assay [2] concerns a variety of cell types that are representative of different cancers. The assay can be described thus: Alamar Blue cell viability assay, variety of cell types representative of different cancers (Tables 12-14). The format is cell-based. To be noted: read-out: IC50. Here is the method:
A representative cell-proliferation assay protocol using Alamar Blue dye (stored at 4° C., use 20 ul per well) is described hereafter.
96-Well Plate Setup and Compound Treatment
a. Split and trypsinize cells.
b. Count cells using hemocytometer.
c. Plate 4,000-5,000 cells per well in 100 μl of medium and seed into a 96-well plate according to the following plate layout. Add cell culture medium only to wells B10 to B12. Wells B1 to B9 have cells but no compound added.
d. Add 100 μl of 2× drug dilution to each well in a concentration shown in the plate layout above. At the same time, add 100 μl of media into the control wells (wells B10 to B12). Total volume is 200 μl/well.
e. Incubate four (4) days at 37° C., 5% CO2 in a humidified incubator.
f. Add 20 μl Alamar Blue reagent to each well.
g. Incubate for four (4) hours at 37° C., 5% CO2 in a humidified incubator.
h. Record fluorescence at an excitation wavelength of 544 nm and emission wavelength of 590 nm using a microplate reader.
In the assays, cells are cultured with a test compound for approximately four days, the dye then is added to the cells and fluorescence of […] dye is detected after approximately four hours. Different types of cells can be utilized in the assays (e.g., HCT-116 human colorectal carcinoma cells, PC-3 human prostatic cancer cells and MiaPaca human pancreatic carcinoma cells). Anti-proliferative effects of representative compounds are provided hereafter.
Inhibitory activity on cell proliferation of Compounds A1, A2 and A3 was determined using an Alamar Blue cell viability assay (e.g., Example 39 herein) using a variety of cell types that are representative of different cancers Inhibition values (IC50) are presented in micromolar concentrations in the following table (Table 12).
Inhibitory activity on cell proliferation of representative compounds of the invention was determined using an Alamar Blue cell viability assay (e.g., Example 39 herein) using a variety of cell types that are representative of different cancers Inhibition values (IC50) are presented in micromolar concentrations in Table 13 and Table 14.
On the technique in general: The colour change of resazurin is a common sign of viable cells or microbes.

Setting [3] is: Homo sapiens, A-375, A375, Skin, Epithelial.
[4] abbreviates: Homo sapiens, BXPC-3, BXPC3, Pancreas, Epithelial.
Where [5] appears, read: Homo sapiens, HCT-116, HCT-116, Colorectal, Epithelial.
[6] abbreviates: Homo sapiens, HL60/MX2, HL60/MX2, Hematopoetic, Lymphoma.
The mark [7] stands for this setting: Homo sapiens, HL-60, HL60, Hematopoetic, Lymphoma.
Setting [8] is: Homo sapiens, HT-29, HT-29, Colorectal, Epithelial.
Setting [9] is: Homo sapiens, Jurkat, Hematopoetic, Lymphoma.
Where [10] appears, read: Homo sapiens, K562, K562, Hematopoetic, Lymphoblast.
Setting [11] is: Homo sapiens, LNCaP, Prostate, Fibroblastoid.
The mark [12] stands for this setting: Homo sapiens, MCF7, MCF-7, Breast, Mammary carcinoma.
The mark [13] stands for this setting: Homo sapiens, MDA-MB-231, MDA-MB-231, Breast, Epithelial.
[14] abbreviates: Homo sapiens, MIA PaCa-2, Miapaca-2, Pancreas, Epithelial.
[15] abbreviates: Homo sapiens, NCI-H460, H460, Lung, Epithelial.
Where [16] appears, read: Homo sapiens, NCI-H1299, H1299, Lung, NSCL.
The mark [17] stands for this setting: Homo sapiens, PANC-1, PANC-1, Pancreas, Epithelial.
[18] abbreviates: Homo sapiens, SAOS-2, Saos-2, Bone, Epithelial.
The mark [19] stands for this setting: Homo sapiens, SK-MES-1, SK-MES-1, Lung, Sqaumous carcinoma.
Where [20] appears, read: Homo sapiens, SK-OV-3, SK-OV-3, Ovary, Epithelial.
The mark [21] stands for this setting: Homo sapiens, U2OS, Bone, Epithelial.
Setting [22] is: Miapaca-R5, Pancreas, Epithelial.

Where two headings read alike, the source gives them in different places.

As to `O=C(NCCNC1CC1)c1c(=O)c2ccc(N3CCOCC3)nc2n2c1sc1ccccc12` [Compound A3], in assay [1], the “A375 tumor growth inhibition relative to untreated control group” value is “significantly inhibited A375 tumor growth”. Besides, the “MiaPaCa tumor growth inhibition relative to untreated control group” value in the assay on MiaPaCa xenograft tumors is “significantly inhibited MiaPaCa tumor growth”. Also, the IC50 came to 70 nM in assay [2] (setting [3]); 71 nM in assay [2] (setting [4]); 93 nM in assay [2] (setting [5]); 219 nM in assay [2] (setting [6]); 160 nM in assay [2] (setting [7]); 102 nM in assay [2] (setting [8]). The IC50 in assay [2] (setting [9]) was determined as 60 nM; in assay [2] (setting [10]), 120 nM; in assay [2] (setting [11]), 45 nM; in assay [2] (setting [12]) it was 267 nM; in assay [2] (setting [13]) it was 139 nM; in assay [2] (setting [14]) it was 122 nM. Moreover, the IC50 in assay [2] (setting [15]) was 123 nM; in assay [2] (setting [16]), 102 nM; in assay [2] (setting [17]), 103 nM; in assay [2] (setting [18]) it was 249 nM; in assay [2] (setting [19]), 134 nM; in assay [2] (setting [20]), 279 nM. For the same compound, the IC50 stood at 476 nM in assay [2] (setting [21]); 133 nM in assay [2] (setting [22]); 563 nM in assay [2] (PC-3, Prostate, Epithelial).
In the case of `Cc1cnc(CNC(=O)c2c(=O)c3ccc(N4CCN(C)CC4)nc3n3c2sc2ccccc23)cn1` [Compound A1], the “A375 tumor growth inhibition relative to untreated control group” value in assay [1] was “significantly inhibited A375 tumor growth”. In addition, in the assay with MiaPaCa xenograft tumors, the “MiaPaCa tumor growth inhibition relative to untreated control group” value was “significantly inhibited MiaPaCa tumor growth”. Moreover, the concentration for half-maximal inhibition (IC50) was 90 nM in assay [2] (setting [3]); 56 nM in assay [2] (setting [4]); 97 nM in assay [2] (setting [5]); 244 nM in assay [2] (setting [6]); 264 nM in assay [2] (setting [7]); 73 nM in assay [2] (setting [8]). For the same compound, the IC50 in assay [2] (setting [9]) worked out at 69 nM; in assay [2] (setting [10]), 140 nM; in assay [2] (setting [11]), 77 nM; in assay [2] (setting [12]) it was 348 nM; in assay [2] (setting [13]), 105 nM; in assay [2] (setting [14]) it was 103 nM. Also, the IC50 in assay [2] (setting [15]) stood at 142 nM; in assay [2] (setting [16]) it was 112 nM; in assay [2] (setting [17]) it was 148 nM; in assay [2] (setting [18]), 264 nM; in assay [2] (setting [19]), 105 nM; in assay [2] (setting [20]), 215 nM. Besides, the IC50 in assay [2] (setting [21]) worked out at 752 nM; in assay [2] (setting [22]), 149 nM; in assay [2] (PC-3, Prostate, Epithelial), 600 nM.

One may read the IC50 as the concentration that gives 50% inhibition.
